Source: patent publication US12077503B2, “Substituted cyclic amides and their use as herbicides” (FMC CORPORATION, priority 2015, dated 2024)

What was measured:
Assay type in all cases: in vivo
Kochia (Kochia scoparia) [1] = experiment: Test A preemergence; details: Bassia scoparia, pre-emergence, 240 h, 0 to 100 scale where 0 is no effect and 100 is complete control, read-out: Kochia plant response rating; for pest or weed control at 31 g/ha: 31 g ai/ha, Preemergence; for pest or weed control at 125 g/ha: 125 g ai/ha, preemergence, visual injury rating, approximately 10 d
Method in brief: (§1)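 Compounds were formulated in a non-phytotoxic solvent mixture with surfactant and applied as a preemergence directed soil spray after seeding, or sprayed postemergence over plants 2 to 10 cm tall at the one- to two-leaf stage. Evaluation after about 10 d compared treated with untreated controls, using a scale from 0 (no effect) to 100 (complete control).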

[2] = test system: barnyardgrass (Echinochloa crus-galli); experiment: Test A preemergence; details: Echinochloa crus-galli, pre-emergence, 240 h, 0 to 100 scale where 0 is no effect and 100 is complete control, read-out: Barnyardgrass plant response rating; for pest or weed control at 31 g/ha: 31 g ai/ha, Preemergence; for pest or weed control at 125 g/ha: 125 g ai/ha, preemergence, visual injury rating, approximately 10 d
Method in brief: as §1

[3] = test system: giant foxtail (Setaria faberii); experiment: Test A preemergence; details: Setaria faberi, pre-emergence, 240 h, 0 to 100 scale where 0 is no effect and 100 is complete control, read-out: Foxtail, Giant plant response rating; for pest or weed control at 31 g/ha: 31 g ai/ha, Preemergence; for pest or weed control at 125 g/ha: 125 g ai/ha, preemergence, visual injury rating, approximately 10 d
Method in brief: as §1

[4] = test system: pigweed (Amaranthus retroflexus); experiment: Test A preemergence; details: Amaranthus retroflexus, pre-emergence, 240 h, 0 to 100 scale where 0 is no effect and 100 is complete control, read-out: Pigweed plant response rating; for pest or weed control at 31 g/ha: 31 g ai/ha, Preemergence; for pest or weed control at 125 g/ha: 125 g ai/ha, preemergence, visual injury rating, approximately 10 d
[5] = test system: ragweed (common ragweed, Ambrosia elatior); experiment: Test A preemergence; details: Ambrosia artemisiifolia, pre-emergence, 240 h, 0 to 100 scale where 0 is no effect and 100 is complete control, read-out: Ragweed plant response rating; for pest or weed control at 31 g/ha: 31 g ai/ha, Preemergence; for pest or weed control at 125 g/ha: 125 g ai/ha, preemergence, visual injury rating, approximately 10 d
Method in brief: as §1

[6] = test system: ryegrass, Italian (Italian ryegrass, Lolium multiflorum); experiment: Test A preemergence; details: Lolium multiflorum, pre-emergence, 240 h, 0 to 100 scale where 0 is no effect and 100 is complete control, read-out: Ryegrass, Italian plant response rating; for pest or weed control at 31 g/ha: 31 g ai/ha, Preemergence; for pest or weed control at 125 g/ha: 125 g ai/ha, preemergence, visual injury rating, approximately 10 d
Method in brief: as §1

[7] = test system: Galium (catchweed bedstraw, Galium aparine); experiment: Test A postemergence; details: Galium, post-emergence, 240 h, Postemergence, read-out: Galium plant response rating (0 to 100 scale); for pest or weed control at 125 g/ha: 125 g ai/ha, visual rating about 10 d after treatment; for pest or weed control at 31 g/ha: 31 g ai/ha, 0 is no effect, 100 is complete control
Method in brief: as §1

Kochia (Kochia scoparia) [8] = experiment: Test A postemergence; details: Bassia scoparia, post-emergence, 240 h, Postemergence, read-out: Kochia plant response rating (0 to 100 scale); for pest or weed control at 125 g/ha: 125 g ai/ha, visual rating about 10 d after treatment; for pest or weed control at 31 g/ha: 31 g ai/ha, 0 is no effect, 100 is complete control
Method in brief: as §1

[9] = test system: barnyardgrass (Echinochloa crus-galli); experiment: Test A postemergence; details: Echinochloa crus-galli, post-emergence, 240 h, Postemergence; for pest or weed control at 125 g/ha: 125 g ai/ha, visual rating about 10 d after treatment, read-out: Barnyardgrass plant response rating (0 to 100 scale, 0 no effect, 100 complete control); for pest or weed control at 31 g/ha: 31 g ai/ha, 0 is no effect, 100 is complete control, read-out: Barnyardgrass plant response rating (0 to 100 scale)
Method in brief: as §1

[10] = test system: blackgrass (Alopecurus myosuroides); experiment: Test A postemergence; details: Alopecurus myosuroides, post-emergence, 240 h, Postemergence, read-out: Blackgrass plant response rating (0 to 100 scale); for pest or weed control at 125 g/ha: 125 g ai/ha, visual rating about 10 d after treatment; for pest or weed control at 31 g/ha: 31 g ai/ha, 0 is no effect, 100 is complete control
Method in brief: as §1

corn (Zea mays) = experiment: Test A postemergence; details: Zea mays, post-emergence, 240 h, Postemergence, read-out: Corn plant response rating (0 to 100 scale); for plant injury at 125 g/ha: 125 g ai/ha, visual rating about 10 d after treatment; for plant injury at 31 g/ha: 31 g ai/ha, 0 is no effect, 100 is complete control
Method in brief: as §1

[11] = test system: giant foxtail (Setaria faberii); experiment: Test A postemergence; details: Setaria faberi, post-emergence, 240 h, Postemergence, read-out: Foxtail, Giant plant response rating (0 to 100 scale); for pest or weed control at 125 g/ha: 125 g ai/ha, visual rating about 10 d after treatment; for pest or weed control at 31 g/ha: 31 g ai/ha, 0 is no effect, 100 is complete control
Method in brief: as §1

[12] = test system: pigweed (Amaranthus retroflexus); experiment: Test A postemergence; details: Amaranthus retroflexus, post-emergence, 240 h, Postemergence, read-out: Pigweed plant response rating (0 to 100 scale); for pest or weed control at 125 g/ha: 125 g ai/ha, visual rating about 10 d after treatment; for pest or weed control at 31 g/ha: 31 g ai/ha, 0 is no effect, 100 is complete control
Method in brief: as §1

[13] = test system: ragweed (common ragweed, Ambrosia elatior); experiment: Test A postemergence; details: Ambrosia artemisiifolia, post-emergence, 240 h, Postemergence, read-out: Ragweed plant response rating (0 to 100 scale); for pest or weed control at 125 g/ha: 125 g ai/ha, visual rating about 10 d after treatment; for pest or weed control at 31 g/ha: 31 g ai/ha, 0 is no effect, 100 is complete control
Method in brief: as §1

[14] = test system: ryegrass, Italian (Italian ryegrass, Lolium multiflorum); experiment: Test A postemergence; details: Lolium multiflorum, post-emergence, 240 h, Postemergence, read-out: Ryegrass, Italian plant response rating (0 to 100 scale); for pest or weed control at 125 g/ha: 125 g ai/ha, visual rating about 10 d after treatment; for pest or weed control at 31 g/ha: 31 g ai/ha, 0 is no effect, 100 is complete control
Method in brief: as §1

[15] = test system: wheat (Triticum aestivum); experiment: Test A postemergence; details: Triticum aestivum, post-emergence, 240 h, Postemergence, read-out: Wheat plant response rating (0 to 100 scale); for plant injury at 125 g/ha: 125 g ai/ha, visual rating about 10 d after treatment; for plant injury at 31 g/ha: 31 g ai/ha, 0 is no effect, 100 is complete control
Method in brief: as §1

[16] = test system: barnyardgrass (Echinochloa crus-galli); experiment: Test B flooded paddy test; details: Echinochloa crus-galli, 250 g ai/ha, Flood; 0 to 100 scale where 0 is no effect and 100 is complete control; read-out: Barnyardgrass plant response rating
Method in brief: (§2)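 Flooding to 3 cm over soil accompanied treatment, which consisted of adding compound to the standing water around 2-leaf plants; depth was then maintained. Visual assessment versus controls followed at 13 to 15 d (scale 0–100, 0 meaning no effect).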

[17] = test system: ducksalad (Heteranthera limosa); experiment: Test B flooded paddy test; details: Heteranthera limosa, 250 g ai/ha, Flood; 0 to 100 scale where 0 is no effect and 100 is complete control; read-out: Ducksalad plant response rating
Method in brief: as §2

rice (Oryra sativa) = experiment: Test B flooded paddy test; details: Oryza sativa, 250 g ai/ha, Flood; 0 to 100 scale where 0 is no effect and 100 is complete control; read-out: Rice plant response rating
Method in brief: as §2

[18] = test system: sedge, umbrella (small-flower umbrella sedge, Cyperus difformis); experiment: Test B flooded paddy test; details: Cyperus difformis, 250 g ai/ha, Flood; 0 to 100 scale where 0 is no effect and 100 is complete control; read-out: Sedge, Umbrella plant response rating
Method in brief: as §2

Compound	pest or weed control at 31 g/ha (Kochia (Kochia scoparia) [1])	pest or weed control at 125 g/ha (Kochia (Kochia scoparia) [1])	pest or weed control at 31 g/ha [2]	pest or weed control at 125 g/ha [2]	pest or weed control at 31 g/ha [3]	pest or weed control at 125 g/ha [3]	pest or weed control at 31 g/ha [4]	pest or weed control at 125 g/ha [4]	pest or weed control at 31 g/ha [5]	pest or weed control at 125 g/ha [5]	pest or weed control at 31 g/ha [6]	pest or weed control at 125 g/ha [6]	pest or weed control at 125 g/ha [7]	pest or weed control at 31 g/ha [7]	pest or weed control at 125 g/ha (Kochia (Kochia scoparia) [8])	pest or weed control at 31 g/ha (Kochia (Kochia scoparia) [8])	pest or weed control at 125 g/ha [9]	pest or weed control at 31 g/ha [9]	pest or weed control at 125 g/ha [10]	pest or weed control at 31 g/ha [10]	other results
CN1C[C@H](c2csc3c2CCC3)[C@@H](C(=O)Nc2ccccc2F)C1=O [Compound 1277]	0%	0%	80%	100%	90%	100%	0%	0%	0%	0%	0%	0%	0%	0%	0%	0%	80%	30%	0%	0%	plant injury at 125 g/ha (corn (Zea mays)): 0%; plant injury at 31 g/ha (corn (Zea mays)): 0%; pest or weed control at 125 g/ha [11]: 70%; pest or weed control at 31 g/ha [11]: 50%; pest or weed control at 125 g/ha [12]: 0%; pest or weed control at 31 g/ha [12]: 0%; pest or weed control at 125 g/ha [13]: 30%; pest or weed control at 31 g/ha [13]: 30%; pest or weed control at 125 g/ha [14]: 0%; pest or weed control at 31 g/ha [14]: 0%; plant injury at 125 g/ha [15]: 0%; plant injury at 31 g/ha [15]: 0%; pest or weed control at 250 g/ha [16]: 40%; pest or weed control at 250 g/ha [17]: 60%; pest or weed control at 250 g/ha (rice (Oryra sativa)): 25%; pest or weed control at 250 g/ha [18]: 0%
CN1C[C@H](c2ccc(C(F)(F)F)cc2)[C@@H](C(=O)Nc2ccccc2-n2cccn2)C1=O [Compound 1283]	0%	0%	0%	0%	0%	0%	0%	0%	0%	0%	0%	0%	0%	0%	0%	0%	0%	0%	0%	0%	plant injury at 125 g/ha (corn (Zea mays)): 0%; plant injury at 31 g/ha (corn (Zea mays)): 0%; pest or weed control at 125 g/ha [11]: 0%; pest or weed control at 31 g/ha [11]: 0%; pest or weed control at 125 g/ha [12]: 0%; pest or weed control at 31 g/ha [12]: 0%; pest or weed control at 125 g/ha [13]: 0%; pest or weed control at 31 g/ha [13]: 0%; pest or weed control at 125 g/ha [14]: 0%; pest or weed control at 31 g/ha [14]: 0%; plant injury at 125 g/ha [15]: 0%; plant injury at 31 g/ha [15]: 0%; pest or weed control at 250 g/ha [16]: 0%; pest or weed control at 250 g/ha [17]: 0%; pest or weed control at 250 g/ha (rice (Oryra sativa)): 0%; pest or weed control at 250 g/ha [18]: 0%
